ChEMBL document CHEMBL4513161, “CO-ADD screening of MMV (CH) - Pandemic Response Box” (2021)
Converted amounts (≈) assume the structure as drawn.

Key:
Acinetobacter baumannii = assay: microbe, parasite or virus in culture; conditions: ATCC 19606, 18 h, ASSAY_TEST Inhibition of Bacterial Growth, detection method Absorption (OD600), MEDIA CAMHB, plate type 384well, NBS, CORNING #3640
Pseudomonas aeruginosa [1] = assay: Antibacterial activity against Pseudomonas aeruginosa PAO397 [PAO1 d(mexAB-oprM) d(mexCD-oprJ) d(mexEF-oprN) d(mexJKL) d(mexXY) d(opmH)] (CO-ADD:GN_211); MIC in CAMBH media using NBS plates, by OD(600); type: functional; conditions: ASSAY_TEST Inhibition of Bacterial Growth, detection method Absorption (OD600), MEDIA CAMHB, plate type 384well, CORNING #3640, time 18 hr
Candida albicans = assay: microbe, parasite or virus in culture; conditions: ATCC 90028, ASSAY_TEST Inhibition of Fungal Growth, detection method Absorption (OD530), plate type 384well, NBS, CORNING #3640
Pseudomonas aeruginosa [2] = assay: microbe, parasite or virus in culture; conditions: ATCC 27853, 18 h, ASSAY_TEST Inhibition of Bacterial Growth, detection method Absorption (OD600), MEDIA CAMHB, plate type 384well, NBS, CORNING #3640
HEK293 = assay: cells; type: functional, Homo sapiens, ATCC CRL1573; conditions: Homo sapiens, ATCC CRL1573, HEK293; ASSAY_TEST Inhibition of Cell Viability; detection method Resazurin; Fluorescence (ex560/em590); MEDIA DMEM with 10% FBS; plate type 384well; TC; CORNING #3712; time 18 hr; read-out: CC50
Escherichia coli = assay: microbe, parasite or virus in culture; conditions: ATCC 25922, 18 h, ASSAY_TEST Inhibition of Bacterial Growth, detection method Absorption (OD600), MEDIA CAMHB, plate type 384well, NBS, CORNING #3640
Staphylococcus aureus = assay: microbe, parasite or virus in culture; conditions: ATCC 43300, 18 h, ASSAY_TEST Inhibition of Bacterial Growth, detection method Absorption (OD600), MEDIA CAMHB, plate type 384well, NBS, CORNING #3640
Klebsiella pneumoniae = assay: microbe, parasite or virus in culture; conditions: ATCC 700603, 18 h, ASSAY_TEST Inhibition of Bacterial Growth, detection method Absorption (OD600), MEDIA CAMHB, plate type 384well, NBS, CORNING #3640

SMILES	MIC (Acinetobacter baumannii) [µM]	MIC (Pseudomonas aeruginosa [1]) [µM]	MIC (Candida albicans) [µM]	MIC (Pseudomonas aeruginosa [2]) [µM]	MIC (Escherichia coli) [µM]	MIC (Cryptococcus neoformans) [µM]	MIC (Staphylococcus aureus) [µM]	MIC (Klebsiella pneumoniae) [µM]	CC50 (HEK293) [µM]
CONC(=N)c1ccc(-c2ccc(-c3ccc(C(=N)NOC)cc3)o2)cc1 [PAFURAMIDINE]	> 20	> 20	> 20	> 20	> 20	> 20	> 20	> 20	> 20
Nc1cnn(C2OC(CO)C(O)C2O)c(=O)n1 (stereo unspecified)	> 20	> 20	> 20	> 20	> 20	> 20	> 20	> 20	> 20
CCc1ccccc1OCCN1CCCCCC1	> 20	> 20	> 20	> 20	> 20	> 20	> 20	> 20	> 20
Nc1nc(=O)c(Br)c(-c2ccccc2)[nH]1 [BROPIRIMINE]	> 20	> 20	> 20	> 20	> 20	> 20	> 20	> 20	> 20
O=c1nc(N2CCN(CC3CCCCC3)CC2)sc2c([N+](=O)[O-])cc(C(F)(F)F)cc12 [MACOZINONE]	> 20	> 20	> 20	> 20	> 20	> 20	> 20	> 20	> 20
Cc1cc(C)n2nc(C(=O)NS(=O)(=O)c3c(C)cccc3OC(F)(F)F)nc2n1	> 20	> 20	> 20	> 20	> 20	> 20	> 20	> 20	> 20
Cc1ccc(N2CCC(CCOc3ccc(S(C)(=O)=O)cc3)CC2)nn1	> 20	> 20	> 20	> 20	> 20	> 20	> 20	> 20	> 20
CC(C)(C)c1ccc(C(Cn2cccc(C(F)(F)F)c2=O)NC2Cc3ccccc3C2)cc1 (stereo unspecified)	> 20	> 20	> 20	> 20	> 20	> 20	> 20	> 20	> 20
COc1ccc(OCc2ccc(COc3c(Cl)cccc3Cl)cc2)c(Cl)c1	> 20	> 20	> 20	> 20	> 20	> 20	> 20	> 20	> 20
CC(C)=CCC/C(C)=C/CNCCNC1C2CC3CC(C2)CC1C3 (stereo unspecified) [SQ109]	> 20	20 (≈ 6.61 µg/mL)	> 20	> 20	> 20	> 20	> 20	> 20	19.5
O=C(/C=C/n1cnc(-c2cc(C(F)(F)F)cc(C(F)(F)F)c2)n1)NNc1cnccn1	> 20	> 20	> 20	> 20	> 20	> 20	> 20	> 20	> 20
O=c1cc(OCc2ccccc2)ccn1Cc1ccccc1	> 20	> 20	> 20	> 20	> 20	> 20	> 20	> 20	> 20
Nc1nc(-c2ccccc2)nc2[nH]nc(Nc3ccc(C(F)(F)F)cc3)c12	> 20	> 20	> 20	> 20	> 20	> 20	> 20	> 20	> 20
CC[C@H](CO)Nc1nc(NCc2ccccc2)c2ncn(C(C)C)c2n1 [SELICICLIB]	> 20	> 20	> 20	> 20	> 20	> 20	> 20	> 20	> 20
COc1ccccc1NC(=O)c1ccccc1Sc1ccc([N+](=O)[O-])cc1	> 20	> 20	> 20	> 20	> 20	> 20	> 20	> 20	> 20
C=C(C)[C@@H]1CC[C@]2(C(=O)O)CC[C@]3(C)[C@H](CC[C@@H]4[C@@]5(C)CC[C@H](O)C(C)(C)[C@@H]5CC[C@]43C)[C@@H]12 [BETULINIC ACID]	> 20	> 20	> 20	> 20	> 20	> 20	> 20	> 20	> 20

Second part, led by results:

MIC (Acinetobacter baumannii) [µM]	MIC (Pseudomonas aeruginosa [1]) [µM]	MIC (Candida albicans) [µM]	MIC (Pseudomonas aeruginosa [2]) [µM]	MIC (Escherichia coli) [µM]	MIC (Cryptococcus neoformans) [µM]	MIC (Staphylococcus aureus) [µM]	MIC (Klebsiella pneumoniae) [µM]	SMILES	CC50 (HEK293) [µM]
> 20	> 20	> 20	> 20	> 20	> 20	> 20	> 20	CC(C)(C)NC(=O)[C@@H]1CN(Cc2cnc3occc3c2)CCN1C[C@@H](O)C[C@@H](Cc1ccccc1)C(=O)N[C@H]1c2ccccc2C[C@H]1O	> 20
> 20	> 20	> 20	> 20	> 20	> 20	> 20	> 20	CC[C@H](NC(=O)[C@H](C)NC)C(=O)N1C[C@@H](O)C[C@H]1Cc1c(-c2[nH]c3cc(F)ccc3c2C[C@@H]2C[C@H](O)CN2C(=O)[C@H](CC)NC(=O)[C@H](C)NC)[nH]c2cc(F)ccc12 [BIRINAPANT]	> 20
> 20	> 20	> 20	> 20	> 20	> 20	> 20	> 20	Nc1ccc(-c2nc3cc(C(F)(F)F)ccc3n2C23CC4CC(CC(C4)C2)C3)cc1	> 20
> 20	> 20	> 20	10 (≈ 2.93 µg/mL)	2.5 (≈ 0.733 µg/mL)	> 20	≤ 0.156	> 20	CCc1cc(O)c(Oc2ccc(C(N)=O)cc2F)cc1F	> 20
> 20	> 20	> 20	> 20	> 20	> 20	> 20	> 20	O=C(O)CSc1cc(NS(=O)(=O)c2cccc3cccnc23)c2ccccc2c1O	> 20
> 20	> 20	> 20	> 20	> 20	> 20	> 20	> 20	CCc1oc2ccccc2c1C(=O)c1ccc(O)cc1 [BENZARONE]	> 20
> 20	> 20	> 20	> 20	> 20	> 20	> 20	> 20	O=C(c1ccc(F)cc1)N1CCN2C(=O)c3ccccc3C12c1ccccc1 (stereo unspecified)	> 20
> 20	> 20	> 20	> 20	> 20	> 20	20 (≈ 11.1 µg/mL)	> 20	COc1c(NC(=O)[C@H]2CC[C@@H](COc3ccc([N+](=O)[O-])cc3)CC2)c(F)cc2c(=O)c(C(=O)O)cn(C3CC3)c12	> 20
